Here are results for 26 compounds from US20250120961A1, “P53 MODULATORS” (Nested Therapeutics, Inc., priority 2023, published 2025).

The target in the test is His-tagged p53-Y220C DNA binding domain (Homo sapiens, UniProt P04637, Y220C). The test can be described thus: Biochemical p53-Y220C and DNA binding assay (HTRF). Particulars: inflection point of 10 points dose titration, 4 parameter curve fit; p53-Y220C DBD 100 nM, biotinylated dsDNA 200 nM, 27 to 29° C.; read-out: HTRF IP. In a few lines:
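DBD (aa 94-312, 100 nM) mixed with compound and biotinylated consensus dsDNA (200 nM) in DPBS/20 mM NaCl/0.5% BSA, overnight at 4 °C, then 60 min at 27-29 °C; anti-His Tb/streptavidin-d2 HTRF read. Activation normalized to reference compound (500%) and DMSO (0%); 10-point curve, inflection point reported.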
In general terms: Time-resolved FRET reads energy transfer from a long-lived donor to a nearby acceptor.

Some results are limits rather than exact numbers.

Consider `O=C1NC(CO/N=C/c2sc3c(N[C@@H]4CNC[C@@H]4F)cccc3c2CC(F)(F)F)CO1` (stereo partly drawn) [Example 2-19, (E)-7-(((3R,4S)-4-fluoropyrrolidin-3-yl)amino)-3-(2,2,2-trifluoroethyl)benzo[b]thiophene-2-carbaldehyde O-((2-oxooxazolidin-4-yl)methyl) oxime], for which the EC50 was 100 to 1000 nM.
Then `Cc1oc(=O)oc1CO/N=C/c1sc2c(N[C@@H]3CNC[C@@H]3F)cccc2c1CC(F)(F)F` [Example 2-20, (E)-7-(((3R,4S)-4-fluoropyrrolidin-3-yl)amino)-3-(2,2,2-trifluoroethyl)benzo[b]thiophene-2-carbaldehyde O-((5-methyl-2-oxo-1,3-dioxol-4-yl)methyl) oxime], with 100 to 1000 nM.
For the compound `CN1C[C@H](F)[C@H](Nc2cccc3c(CC(F)(F)F)c(/C=N/OCC(C)(C)O)sc23)C1` [Example 2-21, (E)-7-(((3R,4S)-4-fluoro-1-methylpyrrolidin-3-yl)amino)-3-(2,2,2-trifluoroethyl)benzo[b]thiophene-2-carbaldehyde O-(2-hydroxy-2-methylpropyl) oxime], the EC50 lay within 100 to 1000 nM.
In the case of `CC(C)N1C[C@H](F)[C@H](Nc2cccc3c(CC(F)(F)F)c(/C=N/OCC(C)(C)O)sc23)C1` [Example 2-22, (E)-7-(((3R,4S)-4-fluoro-1-isopropylpyrrolidin-3-yl)amino)-3-(2,2,2-trifluoroethyl)benzo[b]thiophene-2-carbaldehyde O-(2-hydroxy-2-methylpropyl) oxime] it was under 100 nM; in that of `O=C1NCC(CO/N=C/c2sc3c(N[C@@H]4CNC[C@@H]4F)cccc3c2CC(F)(F)F)O1` (stereo partly drawn) [Example 2-23, (E)-7-(((3R,4S)-4-fluoropyrrolidin-3-yl)amino)-3-(2,2,2-trifluoroethyl)benzo[b]thiophene-2-carbaldehyde O-((2-oxooxazolidin-5-yl)methyl) oxime], 100 to 1000 nM.
In the case of `F[C@H]1CNC[C@H]1Nc1cccc2c(CC(F)(F)F)c(/C=N/OC3CCC3)sc12` [Example 2-24, (E)-7-(((3R,4S)-4-fluoropyrrolidin-3-yl)amino)-3-(2,2,2-trifluoroethyl)benzo[b]thiophene-2-carbaldehyde O-cyclobutyl oxime] it was 100 to 1000 nM; in that of `CC(O/N=C/c1sc2c(N[C@@H]3CNC[C@@H]3F)cccc2c1CC(F)(F)F)c1cccnc1` (stereo partly drawn) [Example 2-25, (E)-7-(((3R,4S)-4-fluoropyrrolidin-3-yl)amino)-3-(2,2,2-trifluoroethyl)benzo[b]thiophene-2-carbaldehyde O-(1-(pyridin-3-yl)ethyl) oxime], 100 to 1000 nM; in that of `O=c1cccc(CO/N=C/c2sc3c(N[C@@H]4CNC[C@@H]4F)cccc3c2CC(F)(F)F)[nH]1` [Example 2-26, (E)-7-(((3R,4S)-4-fluoropyrrolidin-3-yl)amino)-3-(2,2,2-trifluoroethyl)benzo[b]thiophene-2-carbaldehyde O-((6-oxo-1,6-dihydropyridin-2-yl)methyl) oxime], under 100 nM.
With `COc1cccc(CO/N=C/c2sc3c(N[C@@H]4CCN(C)C[C@@H]4F)cccc3c2CC(F)(F)F)n1` [Example 2-27, (E)-7-(((3S,4R)-3-fluoro-1-methylpiperidin-4-yl)amino)-3-(2,2,2-trifluoroethyl)benzo[b]thiophene-2-carbaldehyde O-((6-methoxypyridin-2-yl)methyl) oxime], the EC50 was 100 to 1000 nM.
Then `COc1cccc(CO/N=C\c2sc3c(N[C@@H]4CCN(C)C[C@@H]4F)cccc3c2CC(F)(F)F)n1` [Example 2-28, (Z)-7-(((3S,4R)-3-fluoro-1-methylpiperidin-4-yl)amino)-3-(2,2,2-trifluoroethyl)benzo[b]thiophene-2-carbaldehyde O-((6-methoxypyridin-2-yl)methyl) oxime], with 100 to 1000 nM.
Then `CN1CC[C@@H](Nc2cccc3c(CC(F)(F)F)c(/C=N/OCc4cccc(=O)n4C)sc23)[C@@H](F)C1` [Example 2-29, (E)-7-(((3S,4R)-3-fluoro-1-methylpiperidin-4-yl)amino)-3-(2,2,2-trifluoroethyl)benzo[b]thiophene-2-carbaldehyde O-((1-methyl-6-oxo-1,6-dihydropyridin-2-yl)methyl) oxime], with 100 to 1000 nM; and `CN1CC[C@@H](Nc2cccc3c(CC(F)(F)F)c(/C=N\OCc4cccc(=O)n4C)sc23)[C@@H](F)C1` [Example 2-30, (Z)-7-(((3S,4R)-3-fluoro-1-methylpiperidin-4-yl)amino)-3-(2,2,2-trifluoroethyl)benzo[b]thiophene-2-carbaldehyde O-((1-methyl-6-oxo-1,6-dihydropyridin-2-yl)methyl) oxime], with 100 to 1000 nM; and `CN1CC[C@@H](Nc2cccc3c(CC(F)(F)F)c(/C=N/OCc4cccc(=O)[nH]4)sc23)[C@@H](F)C1` [Example 2-31, (E)-7-(((3S,4R)-3-fluoro-1-methylpiperidin-4-yl)amino)-3-(2,2,2-trifluoroethyl)benzo[b]thiophene-2-carbaldehyde O-((6-oxo-1,6-dihydropyridin-2-yl)methyl) oxime], with under 100 nM.
Then `CN1CC[C@@H](Nc2cccc3c(SC(F)(F)F)c(/C=N/OCC(C)(C)O)sc23)[C@@H](F)C1` [Example 2-32, (E)-7-(((3S,4R)-3-fluoro-1-methylpiperidin-4-yl)amino)-3-((trifluoromethyl)thio)benzo[b]thiophene-2-carbaldehyde O-(2-hydroxy-2-methylpropyl) oxime], with 100 to 1000 nM.
For `CNC(=O)c1ccc(CO/N=C/c2sc3c(N[C@@H]4CCN(C)C[C@@H]4F)cccc3c2SC(F)(F)F)c(NC)c1` [Example 2-33, 4-(((((E)-(7-(((3S,4R)-3-fluoro-1-methylpiperidin-4-yl)amino)-3-((trifluoromethyl)thio)benzo[b]thiophen-2-yl)methylene)amino)oxy)methyl)-N-methyl-3-(methylamino)benzamide], the EC50 is under 100 nM.
Then `CNC(=O)c1ccc(CO/N=C/c2oc3c(N[C@@H]4CCN(C)C[C@@H]4F)cccc3c2SC(F)(F)F)c(NC)c1` [Example 2-34, 4-(((((E)-(7-(((3S,4R)-3-fluoro-1-methylpiperidin-4-yl)amino)-3-((trifluoromethyl)thio)benzofuran-2-yl)methylene)amino)oxy)methyl)-N-methyl-3-(methylamino)benzamide], with over 1000 nM; and `F[C@H]1CNC[C@H]1Nc1cccc2c(CC(F)(F)F)c(/C=N/OC3CCOC3)sc12` (stereo partly drawn) [Example 3-1, (E)-7-(((3R,4S)-4-fluoropyrrolidin-3-yl)amino)-3-(2,2,2-trifluoroethyl)benzo[b]thiophene-2-carbaldehyde O-tetrahydrofuran-3-yl oxime], with under 100 nM; and `F[C@H]1CNC[C@H]1Nc1cccc2c(CC(F)(F)F)c(/C=N/OCc3cccnc3)sc12` [Example 3-2, (E)-7-(((3R,4S)-4-fluoropyrrolidin-3-yl)amino)-3-(2,2,2-trifluoroethyl)benzo[b]thiophene-2-carbaldehyde O-pyridin-3-ylmethyl oxime], with under 100 nM.
In the case of `F[C@H]1CNC[C@H]1Nc1cccc2c(CC(F)(F)F)c(/C=N/OCc3ccccn3)sc12` [Example 3-3, (E)-7-(((3R,4S)-4-fluoropyrrolidin-3-yl)amino)-3-(2,2,2-trifluoroethyl)benzo[b]thiophene-2-carbaldehyde O-pyridin-2-ylmethyl oxime] it was 100 to 1000 nM.
In the case of `Cn1cnc(CO/N=C/c2sc3c(N[C@@H]4CNC[C@@H]4F)cccc3c2CC(F)(F)F)n1` [Example 3-4, (E)-7-(((3R,4S)-4-fluoropyrrolidin-3-yl)amino)-3-(2,2,2-trifluoroethyl)benzo[b]thiophene-2-carbaldehyde O-((1-methyl-1H-1,2,4-triazol-3-yl)methyl) oxime] it was 100 to 1000 nM; in that of `F[C@H]1CNC[C@H]1Nc1cccc2c(CC(F)(F)F)c(/C=N/OCc3nc4ccccc4s3)sc12` [Example 3-5, (E)-7-(((3R,4S)-4-fluoropyrrolidin-3-yl)amino)-3-(2,2,2-trifluoroethyl)benzo[b]thiophene-2-carbaldehyde O-(benzo[d]thiazol-2-ylmethyl) oxime], 100 to 1000 nM.
For `Cc1nnc(CO/N=C/c2sc3c(N[C@@H]4CNC[C@@H]4F)cccc3c2CC(F)(F)F)o1` [Example 3-6, (E)-7-(((3R,4S)-4-fluoropyrrolidin-3-yl)amino)-3-(2,2,2-trifluoroethyl)benzo[b]thiophene-2-carbaldehyde O-((5-methyl-1,3,4-oxadiazol-2-yl)methyl) oxime], the EC50 is 100 to 1000 nM.
Turning to `Cc1cc(CO/N=C/c2sc3c(N[C@@H]4CNC[C@@H]4F)cccc3c2CC(F)(F)F)no1` [Example 3-7, (E)-7-(((3R,4S)-4-fluoropyrrolidin-3-yl)amino)-3-(2,2,2-trifluoroethyl)benzo[b]thiophene-2-carbaldehyde O-((5-methylisoxazol-3-yl)methyl) oxime], the EC50 fell in the range of 100 to 1000 nM.
`O=C1CC(CO/N=C/c2sc3c(N[C@@H]4CNC[C@@H]4F)cccc3c2CC(F)(F)F)CN1` (stereo partly drawn) [Example 3-8, (E)-7-(((3R,4S)-4-fluoropyrrolidin-3-yl)amino)-3-(2,2,2-trifluoroethyl)benzo[b]thiophene-2-carbaldehyde O-((5-oxopyrrolidin-3-yl)methyl) oxime]: the EC50 was in the range of 100 to 1000 nM.
In the case of `CS(=O)(=O)NC1CCC(=Cc2sc3c(N[C@@H]4CCNC[C@@H]4F)cccc3c2CC(F)(F)F)CC1` (stereo partly drawn) [Example 4-1, N-(4-((7-(((3S,4R)-3-fluoropiperidin-4-yl)amino)-3-(2,2,2-trifluoroethyl)benzo[b]thiophen-2-yl)methylene)cyclohexyl)methanesulfonamide] it was over 1000 nM; in that of `CC(=O)N1CCC(=Cc2sc3c(N[C@@H]4CCNC[C@@H]4F)cccc3c2CC(F)(F)F)CC1` [Example 4-2, 1-(4-((7-(((3S,4R)-3-fluoropiperidin-4-yl)amino)-3-(2,2,2-trifluoroethyl)benzo[b]thiophen-2-yl)methylene)piperidin-1-yl)ethan-1-one], over 1000 nM.
